Patent publication US20200306295A1, “METHOD AND DEVICE FOR ANNIHILATION OF Staphylococcus aureus” (priority 2017, published 2020)

Tested on: MRSA USA300
Experiment: In vivo MRSA mice wound model (blue light, H2O2, fusidic acid)
Design: species or system Balb/c mice
Excerpt: To initiate the formation of a skin wound, five groups (n=5) of eight-week old female Balb/c mice (obtained from Harlan Laboratories, Indianapolis, Ind., USA) were disinfected with ethanol (70%) and shaved on the middle of the back (approximately a one-inch by one-inch square region around the injection site) one day prior to infection as described from a reported procedure (3). To prepare the bacterial inoculum, an aliquot of overnight culture of MRSA USA300 was transferred to fresh Tryptic soy broth and shaken at 37° C. until an OD600 value of ˜1.0 was achieved. The cells were centrifuged, washed once with PBS, re-centrifuged, and then re-suspended in PBS. Mice subsequently received an intradermal injection (40 μL) containing 2.40×10^9 CFU/mL MRSA USA300. An open wound formed at the site of injection for each mouse, ˜60 hrs post-infection.
One group of mice was left untreated (negative control). Each group of mice receiving a particular treatment regimen was housed separately in a ventilated cage with appropriate bedding, food, and water. Mice were checked twice daily during infection and treatment to ensure no adverse reactions were observed. Mice were treated twice daily (once every 12 hours) for three days, before they were humanely euthanized via CO2 asphyxiation 12 hours after the last dose was administered. The region around the skin wound was lightly swabbed with ethanol (70%) and excised. The tissue was subsequently homogenized in PBS. The homogenized tissue was then serially diluted in PBS before plating onto mannitol salt agar plates. Plates were incubated for at least 19 hours at 37° C. before viable MRSA CFU/mL were counted for each group. Outlier was removed based upon the Dixon Q Test.

[1] = agent alone, topical, twice a day for three days

SMILES	pus formation in wound after sacrifice [1]	CFU reduction in wound tissue compared to the control group (blue light (24 J/cm^2) and 13.2 mM H2O2, twice daily for three days)	CFU reduction in wound tissue compared to fusidic acid-treated group (blue light and H2O2-treated group)	pus formation in wound after sacrifice (blue light plus H2O2)
CC(=O)O[C@H]1C[C@@]2(C)[C@@H](C[C@@H](O)[C@H]3[C@@]4(C)CC[C@@H](O)[C@@H](C)[C@@H]4CC[C@@]32C)/C1=C(\CCC=C(C)C)C(=O)O [fusidic acid]	showed the formation of pus	–	–	–
OO [H2O2, hydrogen peroxide]	didn't show this sign	around 1.5 log	around one more log reduction	didn't show this sign
